Assay results as given in BindingDB's records for doi:10.1016/j.bmcl.2016.03.041 (Eli Lilly, 2016).
pKi: −log10 of the molar value.

Columns and labels:
[1] = molecular target: T1, Prostaglandin E2 receptor EP1 subtype (Homo sapiens, UniProt P34995); assay: Binding affinity to human EP1
T1 sequence (P34995 whole entry): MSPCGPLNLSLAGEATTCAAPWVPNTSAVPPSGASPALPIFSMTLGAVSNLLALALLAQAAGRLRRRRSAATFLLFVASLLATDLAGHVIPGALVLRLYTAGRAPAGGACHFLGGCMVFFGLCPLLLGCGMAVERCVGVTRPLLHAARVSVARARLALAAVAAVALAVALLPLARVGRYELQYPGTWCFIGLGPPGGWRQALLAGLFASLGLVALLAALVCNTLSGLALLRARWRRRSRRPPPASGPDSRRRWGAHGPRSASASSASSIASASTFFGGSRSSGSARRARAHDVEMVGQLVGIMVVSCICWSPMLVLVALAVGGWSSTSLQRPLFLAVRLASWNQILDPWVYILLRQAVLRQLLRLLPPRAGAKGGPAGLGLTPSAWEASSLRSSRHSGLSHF

[2] = molecular target: T2, Prostaglandin E2 receptor EP3 subtype (Homo sapiens, UniProt P43115); assay: Binding affinity to human EP3
T2 sequence (P43115 whole entry): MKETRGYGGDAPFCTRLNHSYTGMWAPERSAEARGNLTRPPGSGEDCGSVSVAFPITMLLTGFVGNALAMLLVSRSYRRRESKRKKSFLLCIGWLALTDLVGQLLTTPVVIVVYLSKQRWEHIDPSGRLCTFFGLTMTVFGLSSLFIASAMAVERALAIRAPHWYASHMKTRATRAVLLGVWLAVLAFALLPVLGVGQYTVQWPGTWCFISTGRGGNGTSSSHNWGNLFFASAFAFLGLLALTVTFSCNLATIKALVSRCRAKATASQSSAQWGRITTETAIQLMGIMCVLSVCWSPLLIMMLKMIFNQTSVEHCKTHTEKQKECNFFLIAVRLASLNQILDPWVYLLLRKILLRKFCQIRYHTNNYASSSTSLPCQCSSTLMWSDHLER

[3] = molecular target: Prostaglandin E2 receptor EP2 subtype (Homo sapiens, UniProt P43116); assay: Binding affinity to human EP2
Chain of Prostaglandin E2 receptor EP2 subtype (P43116 whole entry): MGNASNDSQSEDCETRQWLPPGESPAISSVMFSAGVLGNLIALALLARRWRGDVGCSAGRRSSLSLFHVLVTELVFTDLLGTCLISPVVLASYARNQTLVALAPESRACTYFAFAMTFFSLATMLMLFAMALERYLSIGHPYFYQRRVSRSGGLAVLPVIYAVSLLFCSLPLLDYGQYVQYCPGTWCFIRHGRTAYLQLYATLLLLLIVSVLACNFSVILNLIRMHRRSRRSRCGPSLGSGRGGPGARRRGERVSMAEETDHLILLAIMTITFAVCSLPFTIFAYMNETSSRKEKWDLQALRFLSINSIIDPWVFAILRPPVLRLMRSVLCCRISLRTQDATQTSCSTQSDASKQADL

pKi [1]: < 4.76
pKi [2]: < 4.85
pKi [3]: < 4.72
SMILES: Cc1ccc(N2CCC(O)CC2)nc1C(=O)Nc1c(C)cc(C(=O)O)cc1C [US8933099, 1]
